{"source": "patent US20240116971A1", "about": "“NMN AND DERIVATIVES FOR ITS USE IN THE TREATMENT OF DEPRESSION AND/OR ANXIETY IN PATIENTS HAVING A FORM OF PARKINSONISM” (Nuvamid SA, priority 2021, published 2024)", "key": {"MSA patients [1]": {"test_system": "MSA patients", "test": "Safety of NMN dietary supplement: hemodynamic, blood count, inflammatory, liver, kidney, cardiac/muscular, metabolic parameters, adverse events", "type": "in vivo, human", "method": "The purpose of the multicentric, prospective, non-randomised, non-controlled pilot study is to study the efficacy of NMN administration in MSA patients (45-80 years old) at a larger scale. In this study, the safety, tolerance and efficacy of a dose of NMN are evaluated. The amount of NMN to be ingested daily is divided into 2 capsules (Size 0). Each patient takes 2 capsules/day in the morning during breakfast with a big glass of water. The composition of each capsule is as follows:\nThe main objectives of the study are to evaluate the safety of the dietary supplement during a 12-week supplementation. The safety of the food supplement is assessed in terms of: • a) Hemodynamic parameters: • Blood pressure (systolic and diastolic arterial pressure (SAP, DAP) standing up and lying down (2 min)), • Heart rate (HR, standing up/lying down (2 min)). • b) Blood Formula Counting: • Hematies, • Leukocytes (lymphocytes, monocytes, neutrophils, basophils, eosinophils), • Platelets. • c) Inflammatory parameters: • C Reactive Protein (CRP), • Sedimentation rate. • d) Liver function: • ASAT, • ALAT, • gamma GT, • Alkaline phosphatases. • e) Kidney function: • Creatinemia, • Urea. • Cardiac and muscular function: • Creatine Phosphokinase (CPK). • f) Metabolic/biochemical parameters: • lonogram (Na+, K+, Cl−), • glycated hemoglobin • g) Occurrence of undesirable effects.\n48 hours before each follow-up visit by the neurological investigator, a nurse visits the patient's home to take blood samples and measure the hemodynamic parameters [SAP/DAP lying down, standing up (2 min) and HR lying down, standing up (2 min)]. In addition, during each visit, the possible occurrence of adverse events will be asked to patients. The nurse visits are scheduled between D-7 and D-2 to confirm the patient's inclusion, then at D13 (for visit V2 at D15), D43 (for visit V3 at D45) and D88 (for the end of study visit at D90). No fasting was required for the biologic assessments. To ensure the safety of the food supplement, all biological parameters must be within the limits of reference values and/or judged by the investigating physician as non-clinical.\nSafety biology, pharmacokinetics and hemodynamic constants (D13; D43; D88): A blood sample is collected by a nurse at patient's home 48 hours before the visit to the investigational site (D13; D43 and D88) so that the investigator has the biological safety results on the day of the consultation.\nThe required bioassessment is the same as the inclusion one (D-2) and include: • Complete and differential Blood cells Counts, • Metabolic/biochemical parameters: lonogram (Na+, K+, Cl−), Glycated hemoglobin (HbA1C) • Inflammatory assessment: CRP, sedimentation rate, • Liver check-up: AST, ALT, gamma GT, ALP, bilirubin • Renal assessment: Creatinemia, urea, • Cardiac and muscular assessment: CPK;\nAlso, an aliquot of acidified whole blood is stored at the AML at −80° C. for the determination of NMN metabolites. The hemodynamic constants (BP and HR standing up/lying down) are taken and entered in the patient's follow-up notebook by the nurse. The nurse also questions the patient on the possible occurrence of adverse events and checks the patient's compliance with treatment by filling in his or her follow-up notebook and pill box. On receipt, the investigating physician check the results: the blood parameters must be within the reference value limits and/or judged by the investigating physician as not clinically relevant. Otherwise, the patient is summoned without delay by the investigating physician to leave the study prematurely.\nAt D90, the safety and tolerance of the study product is assessed by the investigating physician during the visits provided for in the protocol by means of an interview with the patient, information gathered by the volunteer in the daily diary, a clinical examination (including blood pressure and heart rate measurements) and a blood test. All patients continued to take their usual treatment for MSA."}, "MSA patients [2]": {"test_system": "MSA patients", "test": "Efficacy on the UMSARS scale", "type": "in vivo, human", "settings": "for UMSARS activities of daily living sub-score, change: score 0 to 48, lower is better, p-value >0.05", "method": "For each eligible patient: during the first visit, the investigator carries out a specific complementary clinical examination MSA (validated specific scale: UMSARS) in order to score the basal level of the patient at inclusion on 4 axes: activities of daily living (12 items), motor level (14 items), orthostatic hypotension [4 measures: BP standing/sleeping (2 min); CF standing/sleeping (2 min) and orthostatic symptoms [Y/N] and finally, decide on their level of disability (1 item). During this visit, they are given pillbox No 1. They are told to start the product under study the next morning, on D1. In fact, the first intake of the dietary supplement can be taken the next morning with breakfast (2 capsules). Pill box No 1 must be returned at visit V2 (D15) to check compliance. A first daily follow-up notebook (follow-up notebook no 1) is given to the patient to record the intake of the food supplement, the concomitant treatments (if applicable) and any undesirable events that may have occurred. Follow-up notebook no 1 should be returned to the investigator at the V2 follow-up visit. The nurse goes to the patient's home 2 days before each follow-up visit in order to carry out the blood test (safety biology), take the hemodynamic constants standing/lying down (after a 2 minute rest): SAP/DAP and HR which is filled in the patient's follow-up notebook. The nurse checks the patient's compliance with the pillbox and the follow-up booklet. The nurse also reminds the patient not to forget to bring back the pill dispenser and the follow-up booklet at each visit. The investigator also takes the hemodynamic constants of the patient standing and lying down (after 2 minutes rest): SAP/DAP and HR. During this consultation, the patient/carer is also asked to answer a specific quality of life questionnaire (MSA-QoL questionnaire). If the patient meets all the eligibility criteria (apart from biology), the neurologist gives them a medical prescription to carry out a biological assessment. This biological assessment must be carried out within 3 days depending on the patient's availability. To do this, a nurse visits the patient at his/her home to collect the biological samples and to send it to the Medical Analysis Laboratories, the local reference laboratory for this research.\nDuring the third visit at D45 and fourth visit at D90, the investigator also carries out a specific complementary clinical examination MSA (validated specific scale: UMSARS) in order to score the patient's level after 3 months of NMN supplementation on 4 axes: activities of daily living (12 items), motor level (14 items), orthostatic hypotension [4 measures: BP standing/sleeping (2 min); HR standing/sleeping (2 min) and orthostatic symptoms Y/N] and finally decide on their level of disability (1 item)."}}, "data": [{"compound": "NC(=O)c1ccc[n+]([C@@H]2O[C@H](COP(=O)([O-])O)[C@@H](O)[C@H]2O)c1", "note": "[beta-NMN, nicotinamide mononucleotide]", "values": [{"measurement": "ionogram and glycated hemoglobin level", "setting": "MSA patients [1]; 3-month follow-up", "result": "stable"}, {"measurement": "impact on liver function", "setting": "MSA patients [1]; 3 months", "result": "does not thus have an impact"}, {"measurement": "induction of inflammation", "setting": "MSA patients [1]; 3 months", "result": "does not thus induce inflammation"}, {"measurement": "creatine phosphokinase", "setting": "MSA patients [1]; 3 months of follow-up", "result": "relatively stable"}, {"measurement": "liver parameters", "setting": "MSA patients [1]; 3 months of follow-up", "result": "relatively stable"}, {"measurement": "renal parameters", "setting": "MSA patients [1]; 3 months of follow-up", "result": "relatively stable"}, {"measurement": "inflammatory parameters", "setting": "MSA patients [1]; 3 months of follow-up, within or outside reference values, not clinically relevant", "result": "relatively stable"}, {"measurement": "blood count values", "setting": "MSA patients [1]; 3 months of follow-up, within reference limits or not clinically relevant", "result": "relatively stable"}, {"measurement": "safety and tolerance, conclusion", "setting": "MSA patients [1]; MSA patients, 3 months", "result": "safe and well-tolerated"}, {"measurement": "increase in average blood pressure and heart rate", "setting": "MSA patients [1]; NMN 400 mg/day, 3 months", "result": "does not thus lead to an increase"}, {"measurement": "mean heart rate (HR)", "setting": "MSA patients [1]; NMN 400 mg/day, 3 months, V0-V4 comparison p-value=0.2969", "result": "normal and stable over time"}, {"measurement": "Mean systolic blood pressure", "setting": "MSA patients [1]; NMN 400 mg/day, 3 months, V0-V4 comparison p-value=0.6172", "result": "normal and stable over time"}, {"measurement": "Mean diastolic blood pressure", "setting": "MSA patients [1]; NMN 400 mg/day, 3 months, V0-V4 comparison p-value=0.6719", "result": "normal and stable over time"}, {"measurement": "concentration of electrolytes (Na+, K+, Cl−) and glycemia", "setting": "MSA patients [1]; after 3 months of treatment", "result": "does not affect"}, {"measurement": "impact on heart and muscle function", "setting": "MSA patients [1]; after 3 months of treatment", "result": "does not have an impact"}, {"measurement": "UMSARS Motor Examination Scale: improved items", "setting": "MSA patients [2]; NMN 400 mg/day, 3 months", "result": "facial expression and tremor at rest"}, {"measurement": "UMSARS activities of daily living: improved items", "setting": "MSA patients [2]; NMN 400 mg/day, 3 months", "result": "speech, writing, eating and handling cutlery, dressing, risk of falling and orthostatic symptoms"}, {"measurement": "UMSARS disability scale score", "setting": "MSA patients [2]; PP population, 3.5±1.0 points at VO, scale 1 to 5", "result": "maintained at V3 and V4"}, {"measurement": "Orthostatic hypotension (OH)", "setting": "MSA patients [2]; V3 and V4, OH had been detected in these patients at previous visits, other patients unchanged", "result": "two patients showed no signs of OH at V3 and V4"}, {"measurement": "functional situation of the patients", "setting": "MSA patients [2]; at 1.5 months and 3 months, mITT and PP populations", "result": "slight improvement"}, {"measurement": "UMSARS motor examination, overall", "setting": "MSA patients [2]; at 3 months, mITT and PP", "result": "did not show any improvement in the motor examination but did not show any deterioration"}, {"measurement": "UMSARS activities of daily living sub-score, change", "setting": "MSA patients [2]; mITT population, V3 vs VO (16.3±6.8 points)", "result": "−0.3", "unit": "point"}, {"measurement": "UMSARS Motor Examination Scale sub-score, change", "setting": "MSA patients [2]; mITT population, V3 vs VO (18.5±11.3 points), score 0 to 56, lower is better", "result": "−0.6", "unit": "points"}, {"measurement": "UMSARS Motor Examination Scale sub-score", "setting": "MSA patients [2]; mITT population, V4, VO 18.5±11.3 points", "result": "rises again at V4 to reach the score observed at VO"}, {"measurement": "UMSARS activities of daily living sub-score, change", "setting": "MSA patients [2]; mITT population, V4 vs VO (16.3±6.8 points)", "result": "−1.0", "unit": "point"}, {"measurement": "UMSARS disability scale score", "setting": "MSA patients [2]; mITT population, 2.9±1.4 points at VO, scale 1 to 5, lower is more independent", "result": "perfectly maintained at V3 and V4"}]}]}
